Assay results reported in patent US10202371B2, “Oxazolidin-2-one-pyrimidine derivatives and the use thereof as phosphatidylinositol-3-kinase inhibitors” (Novartis AG, priority 2012, dated 2019).

Tests used:
[1] = Photostability in light stability chamber; assay type: physicochemical; conditions: 1.0 mg/ml in ethanol, 19620 kJ/m^2 over 13 h, 15° C., UPLC 254 nm
Description: Samples investigated for light stability were treated in a light stability chamber (Atlas CPS+, Serial Number 0704013). Solutions of 1.0 mg/ml in ethanol were prepared for each molecule and aliquots of 0.5 mL were dispensed into suitable micro tubes. All measurements were done in duplicate and compared to a reference wrapped in aluminium foil during light exposure. Solutions were exposed to 19620 kJ/m^2 over 13 h. Samples were kept at 15° C. during the experiment. […] The peak areas were automatically integrated, and the degradation percentage calculated as the difference between the corresponding peak area percentage of the reference sample and the average peak area percentage of the exposed samples (duplicate).

[2] = target: human PI3Kδ (Homo sapiens (Human), UniProt O00329); assay: Biochemical assay PI3Kdelta (Adapta TR-FRET); conditions: read-out: PI3Kd/IC50
Source text: Catalytically active human PI3Kα, PI3Kβ, PI3Kδ, and mTOR were cloned, expressed and purtified as described ([…], Stauffer F, Brueggen J, Furet […], de Pover A, Schoemaker K, Fabbro D, Gabriel D, Simonen M, Murphy […], Garcia-Echeverria C (2008), Mol Cancer Ther. 7:1851-63 and […], Huh […], Schoemaker K, De Pover […], Garcia-Echeverria C, Voliva CF (2011), Mol. Cancer Ther. accepted). The TR-FRET AdaptaTM Universal Kinase Assay Kit was purchased from Invitrogen Corporation (Carlsbad/CA, USA) (Cat. No. PV5099). The kit contains the following reagents: Adapta Eu-anti-ADP Antibody (Europium labeled anti-ADP antibody in HEPES buffered saline, Cat. No. PV5097), Alexa Fluor® 647-labeled ADP tracer (Alexa Fluor® 647-labeled ADP tracer in HEPES buffered saline, Cat. No. PV5098), proprietary TR-FRET dilution buffer pH 7.5 (Cat. No. PV3574). PIK3CD substrate Phosphatidylinositol was obtained from Invitrogen (vesicules consisting of 2 mM PI in 50 mM HEPES pH7.5; Cat. No. PV5371). […] TR-FRET assays for protein kinases use a long-lifetime lanthanide Terbium or Europium chelates as the donor species which overcome interference from compound autofluorescence or light scatter from precipitated compounds, by introducing a delay after excitation by a flashlamp excitation source. Results are often expressed as a ratio of the intensities of the acceptor and donor fluorophores. The ratiometric nature of such a value corrects for differences in assay volumes between wells, as well as corrects for quenching effects due to colored compounds. The AdaptaTM assay can be divided into two phases: a kinase reaction phase and an ADP detection phase. In the kinase reaction phase, all kinase reaction components are added to the well and the reaction is allowed to incubate for a set period of time specific for each kinase. After the reaction, a detection solution of Eu-labeled anti-ADP antibody, Alexa Fluor® 647-labeled ADP tracer, and EDTA (to stop the kinase reaction) are added to the assay well. ADP formed by the kinase reaction will displace the Alexa Fluor® 647-labeled ADP tracer from the antibody, resulting in a decrease in TR-FRET signal. In the presence of an inhibitor, the amount of ADP formed by the kinase reaction is reduced, and the resulting intact antibody-tracer interaction maintains a high TR-FRET signal. In the AdaptaTM assay, the donor (Europium-anti-ADP antibody) is excited at 340 nm and will transfer its energy to the acceptor (Alexa Fluor® 647-labeled ADP tracer). The emission from the Alexa Fluor® 647 can be monitored with a filter centered at 665 nm because it is located between the emission peaks of the donor, which is measured at 615/620 nm. […] Reactions were stopped with 5 μL of a mixture of EDTA containing the Eu-labeled anti-ADP antibody and the Alexa Fluor® 647-labeled ADP tracer in TR-FRET dilution buffer (proprietary to IVG). […] Data are analyzed using Excel fit software or Graphpad Prism. EC50 values were derived by fitting a sigmoidal dose-response curve to a plot of assay readout over inhibitor concentration. All fits were performed with the program XLfit4 (ID Business Solutions, Guildford, UK). […] All fits were performed with the program XLfit4 (ID Business Solutions, Guildford, UK).

Sequence of human PI3Kδ (O00329 2-1044): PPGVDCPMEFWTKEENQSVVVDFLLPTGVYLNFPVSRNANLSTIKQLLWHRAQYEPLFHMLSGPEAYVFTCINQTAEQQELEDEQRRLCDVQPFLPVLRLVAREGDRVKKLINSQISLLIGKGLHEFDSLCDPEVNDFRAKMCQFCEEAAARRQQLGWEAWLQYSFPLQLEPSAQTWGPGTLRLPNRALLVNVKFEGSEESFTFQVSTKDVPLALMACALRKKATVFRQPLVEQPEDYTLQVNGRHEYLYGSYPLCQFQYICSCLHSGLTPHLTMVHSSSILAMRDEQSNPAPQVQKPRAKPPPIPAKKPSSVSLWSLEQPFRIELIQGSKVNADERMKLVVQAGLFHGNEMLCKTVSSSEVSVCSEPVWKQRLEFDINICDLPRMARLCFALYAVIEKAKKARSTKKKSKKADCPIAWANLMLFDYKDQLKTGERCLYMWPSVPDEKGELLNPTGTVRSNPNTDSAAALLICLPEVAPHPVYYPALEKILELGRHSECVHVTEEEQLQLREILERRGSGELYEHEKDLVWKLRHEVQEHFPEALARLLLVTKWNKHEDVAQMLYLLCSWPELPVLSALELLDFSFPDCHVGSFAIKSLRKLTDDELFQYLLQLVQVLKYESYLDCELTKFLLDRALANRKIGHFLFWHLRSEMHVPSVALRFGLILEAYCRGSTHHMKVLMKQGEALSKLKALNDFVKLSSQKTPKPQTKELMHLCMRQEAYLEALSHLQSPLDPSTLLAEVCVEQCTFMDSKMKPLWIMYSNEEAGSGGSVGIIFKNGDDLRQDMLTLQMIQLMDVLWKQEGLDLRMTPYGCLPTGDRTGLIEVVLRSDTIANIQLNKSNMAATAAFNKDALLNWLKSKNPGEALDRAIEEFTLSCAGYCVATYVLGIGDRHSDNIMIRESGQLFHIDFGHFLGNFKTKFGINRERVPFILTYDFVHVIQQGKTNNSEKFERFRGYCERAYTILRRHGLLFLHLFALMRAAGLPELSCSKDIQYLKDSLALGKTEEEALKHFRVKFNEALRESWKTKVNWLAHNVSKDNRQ

| SMILES | % degradation in photostability assay (average) [1] | IC50 [2] |
| --- | --- | --- |
| CC[C@H]1[C@H](c2ccc(OC)cc2)OC(=O)N1c1cc(-c2cnc(N)nc2C(F)(F)F)nc(N2CCOCC2)n1 (relative stereo) [Example 2, (4S*,5S*)-3-(2′-amino-2-morpholino-4′-(trifluoromethyl)-[4,5′-bipyrimidin]-6-yl)-4-ethyl-5-(4-methoxyphenyl)oxazolidin-2-one] | 3% | – |
| C[C@H]1[C@H](c2nccs2)OC(=O)N1c1cc(-c2cnc(N)nc2C(F)(F)F)nc(N2CCOCC2)n1 [Example 1, (4S,5R)-3-(2′-Amino-2-morpholin-4-yl-4′-trifluoromethyl-[4,5′]bipyrimidinyl-6-yl)-4-methyl-5-thiazol-2-yl-oxazolidin-2-one] | 8% | – |
| COc1ccc([C@@H]2OC(=O)N(c3cc(-c4cnc(N)nc4C(F)(F)F)nc(N4CCOCC4)n3)[C@H]2CO)cc1 [Example 3, (4S,5S)-3-(2′-Amino-2-morpholino-4′-(trifluoromethyl)-[4,5′-bipyrimidin]-6-yl)-4-(hydroxymethyl)-5-(4-methoxyphenyl)oxazolidin-2-one] | 3% | 4 nM |
| C[C@H]1[C@H](c2ccccc2)OC(=O)N1c1cc(-c2cnc(N)nc2C(F)(F)F)nc(N2CCOCC2)n1 [Example 5] | 17% | 147 nM |
| CC[C@H]1[C@H](c2nccs2)OC(=O)N1c1cc(-c2cnc(N)nc2C(F)(F)F)nc(N2CCOCC2)n1 [Example 7] | – | 41 nM |
| CC1C(c2cccnc2)OC(=O)N1c1cc(-c2cnc(N)nc2C(F)(F)F)nc(N2CCOCC2)n1 (stereo not drawn) [Example 9] | – | 10 nM |
| Nc1ncc(-c2cc(N3C(=O)O[C@@H](c4ccccc4)[C@@H]3CO)nc(N3CCOCC3)n2)c(C(F)(F)F)n1 [Example 10] | 7% | 31 nM |
| COCCOc1ccc([C@@H]2OC(=O)N(c3cc(-c4cnc(N)nc4C(F)(F)F)nc(N4CCOCC4)n3)[C@H]2CO)cc1 [Example 12] | 12% | 4 nM |
| Nc1ncc(-c2cc(N3C(=O)O[C@@H](c4ccc(OCCO)cc4)[C@@H]3CO)nc(N3CCOCC3)n2)c(C(F)(F)F)n1 [Example 13] | 4% | 3 nM |
| Nc1ncc(-c2cc(N3C(=O)O[C@@H](c4ccc(OCCCO)cc4)[C@@H]3CO)nc(N3CCOCC3)n2)c(C(F)(F)F)n1 [Example 14] | 8% | – |
